Drawing on patent publication US11124516B2, “Pyrrolo[1,2-A]pyrimidinyl carboxamide compounds and their use in the treatment of medical disorders” (Bial—Biotech Investments, Inc., priority 2016, dated 2021), this text covers solubility and activation for 14 molecules.

Data set [1] can be described thus: Compound solubility in water. It counts as physicochemical.
Data set [2] concerns the target T1, glucocerebrosidase (Gcase) (Homo sapiens, UniProt P04062).
T1 sequence (P04062 40-536): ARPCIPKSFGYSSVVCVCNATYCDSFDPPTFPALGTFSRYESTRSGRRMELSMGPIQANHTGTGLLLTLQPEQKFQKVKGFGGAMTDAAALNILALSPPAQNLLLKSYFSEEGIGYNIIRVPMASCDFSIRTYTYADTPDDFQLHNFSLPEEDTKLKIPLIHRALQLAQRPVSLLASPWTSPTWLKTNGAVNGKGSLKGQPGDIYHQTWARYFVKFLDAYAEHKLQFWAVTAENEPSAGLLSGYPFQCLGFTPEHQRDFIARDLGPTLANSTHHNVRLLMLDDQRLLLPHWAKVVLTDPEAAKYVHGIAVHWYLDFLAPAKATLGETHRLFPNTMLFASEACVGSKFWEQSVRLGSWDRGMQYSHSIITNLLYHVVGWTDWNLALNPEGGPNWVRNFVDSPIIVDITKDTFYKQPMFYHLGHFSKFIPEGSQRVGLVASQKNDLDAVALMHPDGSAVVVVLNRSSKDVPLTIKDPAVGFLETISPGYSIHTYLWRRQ
As to the kind of experiment: Glucocerebrosidase (Gcase) activation assay, 4-methylumbelliferyl-beta-D-glucopyranoside substrate, fluorescence. Format: biochemical. The note with it: 0.25 h, 10 nM GCase, 100 nM saposin C; for activation at 0.1 µM: pH 4.7, test compound at 0.1 μM, read-out: Percent Gcase Activation 0.1 μM Test Compound; for activation at 1 µM: pH 4.7, test compound at 1.0 μM, read-out: Percent Gcase Activation 1 μM Test Compound. In outline:
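10 nM GCase with 100 nM saposin C in Triton/phosphatidylserine micelles (citrate-phosphate, pH 4.7), pre-incubated 30 min at room temperature with compound, then 2 mM 4-methylumbelliferyl-β-D-glucoside stock mixed 1:1; 15 min reaction, stopped with glycine pH 12.5, fluorescence at 365/440 nm. Activation scored at 1.0 and 0.1 μM; 8-point curves from 5 μM top.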

SMILES strings stand for the structures. Converted amounts (≈) assume the structure as drawn.

`Cc1cc(C)n2ccc(C(=O)NC(CC(C)C)c3cccnc3)c2n1` (stereo not drawn) [IV-52]: in data set [1], the concentration in solution (solubility) was 17.3 µg/mL (≈ 51.4 µM). Further, in data set [2], the activation at 0.1 µM is less than 10% and the activation at 1 µM lay in the range of 30 to 60%.

For `Cc1cc(C)n2ccc(C(=O)NC(C)c3cccc4c3OCCCO4)c2n1` (stereo not drawn) [IV-53], in data set [1], the solubility (usually how much of the substance goes into solution per volume) was determined as 5.1 µg/mL (≈ 14 µM). Also, in data set [2], the activation at 0.1 µM was in the range of 10 to 20% and the activation at 1 µM was greater than 60%.

`CCC(NC(=O)c1ccn2c(C)cc(C)nc12)c1cc(C)ccn1` (stereo not drawn) [IV-54] yielded a solubility in data set [1] of 23.2 µg/mL (≈ 72 µM). For the same molecule, in data set [2], the activation at 0.1 µM is less than 10% and the activation at 1 µM is less than 30%.

Regarding `CCC(NC(=O)c1ccn2c(C)cc(C)nc12)c1cccc(C)n1` (stereo not drawn) [IV-55], the solubility in data set [1] stood at 17.6 µg/mL (≈ 54.6 µM). Moreover, in data set [2], the activation at 0.1 µM was less than 10% and the activation at 1 µM was less than 30%.

In data set [1], `CCC(NC(=O)c1ccn2c(C)cc(C)nc12)c1ccc(F)cc1` (stereo not drawn) [IV-56] yielded a solubility of 2 µg/mL (≈ 6.15 µM). Moreover, in data set [2], the activation at 0.1 µM was greater than 20% and the activation at 1 µM was greater than 60%.

In the case of `CCC(NC(=O)c1ccn2c(C)cc(C)nc12)c1nc(C2CC2)no1` (stereo not drawn) [IV-58], the concentration in solution in data set [1] (solubility) came to 18.5 µg/mL (≈ 54.5 µM). For the same molecule, in data set [2], the activation at 0.1 µM is less than 10% and the activation at 1 µM fell in the range of 30 to 60%.

`CCC(NC(=O)c1ccn2c(C)cc(C)nc12)c1ccc(Cl)cc1` (stereo not drawn) [IV-59]: in data set [1], the solubility turned out to be 0.8 µg/mL (≈ 2.34 µM). Further, in data set [2], the activation at 0.1 µM was greater than 20% and the activation at 1 µM is greater than 60%.

In data set [1], `COc1ccc(C(C)NC(=O)c2ccn3c(C)cc(C)nc23)cc1F` (stereo not drawn) [IV-61] returned a solubility of 1.9 µg/mL (≈ 5.57 µM). In data set [2], the activation at 0.1 µM is greater than 20% and the activation at 1 µM was greater than 60%.

In data set [1], `CCC(NC(=O)c1ccn2c(C)cc(C)nc12)c1ccc2c(c1)OCCO2` (stereo not drawn) [IV-62] came in with a solubility of 1.1 µg/mL (≈ 3.01 µM). In data set [2], the activation at 0.1 µM lay in the range of 10 to 20% and the activation at 1 µM was greater than 60%.

With `Cc1cc(C)n2ccc(C(=O)NC(C)c3nc4c(s3)CCCC4)c2n1` (stereo not drawn) [IV-64], the solubility in data set [1] amounted to 4.9 µg/mL (≈ 13.8 µM). Moreover, in data set [2], the activation at 0.1 µM lay in the range of 10 to 20% and the activation at 1 µM is greater than 60%.

In data set [1], `Cc1cc(C)n2ccc(C(=O)NC(CC(C)C)c3ccccc3)c2n1` (stereo not drawn) [IV-66] registered a solubility of 1 µg/mL (≈ 2.98 µM). Also, in data set [2], the activation at 0.1 µM is greater than 20% and the activation at 1 µM was greater than 60%.

With `Cc1cc(C)n2ccc(C(=O)NC(C)C3(c4ccccc4)CCCC3)c2n1` (stereo not drawn) [IV-73], in data set [1], the solubility turned out to be 1.5 µg/mL (≈ 4.15 µM). For the same molecule, in data set [2], the activation at 0.1 µM is greater than 20% and the activation at 1 µM is greater than 60%.

In data set [1], `CCOc1ccccc1C(C)NC(=O)c1ccn2c(C)cc(C)nc12` (stereo not drawn) [IV-78] yielded a solubility of 2.1 µg/mL (≈ 6.22 µM). For the same molecule, in data set [2], the activation at 0.1 µM is greater than 20% and the activation at 1 µM is greater than 60%.

As to `Cc1cc(C)n2ccc(C(=O)NC(C)c3ccc4c(c3)CC(C)O4)c2n1` (stereo not drawn) [IV-79], the solubility in data set [1] was 2.6 µg/mL (≈ 7.44 µM). Moreover, in data set [2], the activation at 0.1 µM is greater than 20% and the activation at 1 µM is greater than 60%.
